Key:
PON1 = PON1 (Homo sapiens, UniProt P27169); settings: cited from earlier work
[1] = test system: alanine aminotransferase (ALAT); experiment: ALAT elevation during longer-term treatment with ximelagatran (clinical trials); format: in vivo, human
From the text: Phase III clinical trials have been performed using fixed doses of melagatran and ximelagatran for the prevention of VTE in hip or knee replacement surgery. In addition, clinical trials have been performed using ximelagatran for the treatment and long-term secondary prevention of VTE, and for the prevention of stroke in patients with non-valvular atrial fibrillation. Ximelagatran has also been tested for secondary thrombosis prophylaxis post-myocardial infarction/acute coronary syndrome (ACS).
Alanine aminotransferrase (ALAT) is an enzyme mostly expressed in the liver (EC 2.6.1.2). It is also called serum glutamate pyruvate transaminase (SGPT) or alanine transaminase (ALT). This enzyme is release into the plasma by liver cell death, which is a normal event. However, when liver cell death increases, ALAT levels rise above the normal range. The spill-over of this enzyme into blood is routinely measured as a marker of abnormal liver-cell damage. For example, alcoholic or viral hepatitis will increase ALAT levels, as will severe congestive heart failure. ALAT is also markedly raised in hepatitis and other acute liver damage. An elevated ALAT in the presence of normal levels of plasma alkaline phosphatase helps distinguish liver disease caused by liver-cell damage from diseases caused by problems in biliary ducts. Elevations of ALAT are normally measured in multiples of the upper limit of normal (ULN), with a reference range of 15-45 U/L in most laboratories. In 1987, in a study of 19,877 healthy Air Force recruits, only 99 (0.5%) had confirmed ALAT elevations (as reviewed in Green & Flamm (2002) Gastroenterology 123:1367-1384).
The increase in ALAT values with ximelagatran usually occurred within the first 6 months of treatment and were mainly asymptomatic. […] Subject to the future regulatory approval of ximelagatran, regular liver function testing (LFT) using an appropriate algorithm may be required if ximelagatran is used for treatment periods exceeding a month. […]

PON1, sequence (P27169 whole entry): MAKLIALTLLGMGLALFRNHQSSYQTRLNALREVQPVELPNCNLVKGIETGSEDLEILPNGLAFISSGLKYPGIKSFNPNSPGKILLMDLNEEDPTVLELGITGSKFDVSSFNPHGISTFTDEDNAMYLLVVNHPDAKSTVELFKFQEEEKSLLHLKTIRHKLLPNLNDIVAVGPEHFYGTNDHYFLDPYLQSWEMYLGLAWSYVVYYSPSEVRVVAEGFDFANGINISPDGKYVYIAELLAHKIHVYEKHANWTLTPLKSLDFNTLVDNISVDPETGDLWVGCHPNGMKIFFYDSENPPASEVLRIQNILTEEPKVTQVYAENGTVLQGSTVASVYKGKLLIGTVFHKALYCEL

CC(=O)S[C@@H]1CC2=CC(=O)CC[C@]2(C)[C@H]2CC[C@@]3(C)[C@@H](CC[C@@]34CCC(=O)O4)[C@H]12 [spironolactone]
hydrolysis by PON1 (PON1): hydrolyzed by PON1

CCOC(=O)CN[C@@H](C(=O)N1CC[C@H]1C(=O)NCc1ccc(/C(N)=N\O)cc1)C1CCCCC1 [ximelagatran, EtOOC—CH2—(R)Cgl-Aze-Pab-OH]
patients exhibiting levels of alanine aminotransferase (ALAT) 3-fold or more above the upper limit of normal (≧3×ULN) ([1]; longer-term treatment (>35 days), 1.2% in the comparator groups): 7.9%
reversibility of ALAT increases ([1]; regardless of whether treatment was continued or discontinued): reversible in most patients
time of occurrence of the increase in ALAT values ([1]; usually, of treatment, mainly asymptomatic): ≤ 6 months

CC[C@H](C)C(=O)O[C@H]1C[C@@H](C)C=C2C=C[C@H](C)[C@H](CC[C@@H]3C[C@@H](O)CC(=O)O3)[C@H]21 [lovastatin]
hydrolysis by PON1 (PON1): hydrolyzed by PON1

CC[C@H](C)C(=O)O[C@H]1CCC=C2C=C[C@H](C)[C@H](CC[C@@H]3C[C@@H](O)CC(=O)O3)[C@H]21 [mevastatin]
hydrolysis by PON1 (PON1): hydrolyzed by PON1
